# Earlier results, collected in patent US6797806B2, “Fragments of CR1 and their use” (AdProTech Limited, priority 1996, dated 2004).
# Key:
# [1] = in vivo
# [2] = in vivo; remark: listed apart in the source
# [3] = systemic inhibition of CA over 6 days
# [4] = test system: myeloperoxidase activity (an indicator of neutrophil accumulation); details: rat
# [5] = in vivo; remark: listed apart in the source
substance,measurement,setting,value
"sCR1: soluble CR1 construct, complement inhibitor, molecular weight 245 kilodaltons",activity in a reversed passive Arthus reaction,[1],demonstrated in vivo activity
same,survival rates following transplantation,[2],extended survival rates
same,"CNS inflammation, demyelination and deposition of complement components",[3],blocked
same,clinical score,[3],improvements in clinical score
same,myeloperoxidase activity following traumatic injury,[4],reduce myeloperoxidase activity
same,post-ischemic myocardial inflammation and necrosis,[5],suppressed
